Experimental data published in US7838674B2, “Tetracyclic lactame derivatives” (Novartis AG, priority 2007, dated 2010).
pIC50: −log10 of the molar value. Structures can show the parent of a compound that is named as a salt.

target: T1, MAPKAPK2 enzyme (HIS-MK2, Invitrogen PV4019) (Homo sapiens, UniProt P49137); assay: Alternative MAPKAPK2 assay (Caliper microfluidic mobility shift, HSP27-peptide); assay type: biochemical; settings: HIS-MK2 0.013 nM, ATP 10 μM, 60 min at 30° C.
T1 construct: His; purchased Invitrogen PV4019
T1 sequence (P49137 whole entry): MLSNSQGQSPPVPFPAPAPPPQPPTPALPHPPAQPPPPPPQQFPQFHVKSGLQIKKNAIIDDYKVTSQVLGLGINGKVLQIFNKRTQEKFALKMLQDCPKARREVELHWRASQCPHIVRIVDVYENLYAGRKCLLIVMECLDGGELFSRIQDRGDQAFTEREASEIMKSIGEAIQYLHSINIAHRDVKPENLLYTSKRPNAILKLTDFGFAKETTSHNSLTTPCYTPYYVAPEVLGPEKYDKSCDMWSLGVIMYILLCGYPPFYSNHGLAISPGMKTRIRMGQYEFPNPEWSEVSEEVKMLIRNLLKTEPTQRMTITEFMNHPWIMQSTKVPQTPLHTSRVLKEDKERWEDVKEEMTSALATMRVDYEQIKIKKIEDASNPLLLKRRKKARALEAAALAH

`O=C1NC2(CC2)C2(CC2)c2[nH]c3c(c21)CCc1cnc(-c2ccc(N4CCNCC4)cc2)cc1-3` [Example 220, 2-(1′-Amino-bicyclopropyl-1-yl)-8-(4-piperazin-1-yl-phenyl)-4,5-dihydro-1H-pyrrolo[2,3-f]isoquinoline-3-carboxylic acid lactam hydrochloride] was tested. Which pIC50 did it give?
Its pIC50 is 7.59.

`CN1CCN(c2ccc(-c3cc4c(cn3)CCc3c-4[nH]c4c3C(=O)NC3(CC3)C43CC3)cc2)CC1` [Example 221, 2-(1′-Amino-bicyclopropyl-1-yl)-8-[4-(4-methyl-piperazin-1-yl)-phenyl]-4,5-dihydro-1H-pyrrolo[2,3-f]isoquinoline-3-carboxylic acid lactam] was tested. Which pIC50 did it give?
The pIC50 was 7.54.

How did the pIC50 turn out when `CN1CC2(C1)c1[nH]c3c(c1C(=O)NC21CC1)CCc1cnc(-c2ccc(C(F)(F)F)nc2)cc1-3` [Example 222, 2-[3-(1-Amino-cyclopropyl)-1-methyl-azetidin-3-yl]-8-(6-trifluoromethyl-pyridin-3-yl)-4,5-dihydro-1H-pyrrolo[2,3-f]isoquinoline-3-carboxylic acid lactam] was run?
Its pIC50 is greater than 8.52.

`CN1CC2(C1)c1[nH]c3c(c1C(=O)NC21CC1)CCc1cnc(-c2ccc(F)nc2)cc1-3` [Example 223, 2-[3-(1-Amino-cyclopropyl)-1-methyl-azetidin-3-yl]-8-(6-fluoro-pyridin-3-yl)-4,5-dihydro-1H-pyrrolo[2,3-f]isoquinoline-3-carboxylic acid lactam] was tested. Which pIC50 did it give?
The pIC50 was greater than 8.52.

How did the pIC50 turn out when `CN1CC2(C1)c1[nH]c3c(c1C(=O)NC21CC1)CCc1cnc(-c2cccc(Cl)c2)cc1-3` [Example 224, 2-[3-(1-Amino-cyclopropyl)-1-methyl-azetidin-3-yl]-8-(3-chlorophenyl)-4,5-dihydro-1H-pyrrolo[2,3-f]isoquinoline-3-carboxylic acid lactam] was run?
Its pIC50 is greater than 8.52.

With `COc1ccc(-c2cc3c(cn2)CCc2c-3[nH]c3c2C(=O)NC2(CC2)C32CN(C)C2)cc1` [Example 225, 2-[3-(1-Amino-cyclopropyl)-1-methyl-azetidin-3-yl]-8-(4-methoxyphenyl)-4,5-dihydro-1H-pyrrolo[2,3-f]isoquinoline-3-carboxylic acid lactam] as the molecule, how does the pIC50 read?
The pIC50 was greater than 8.52.

With `CN1CC2(C1)c1[nH]c3c(c1C(=O)NC21CC1)CCc1cnc(-c2cccc(C(=O)NCc4ccccc4)c2)cc1-3` [Example 226, 2-[3-(1-Amino-cyclopropyl)-1-methyl-azetidin-3-yl]-8-(3-benzylcarbamoyl-phenyl)-4,5-dihydro-1H-pyrrolo[2,3-f]isoquinoline-3-carboxylic acid lactam] as the molecule, how does the pIC50 read?
Its pIC50 is greater than 8.52.

With `CN1CC2(C1)c1[nH]c3c(c1C(=O)NC21CC1)CCc1cnc(-c2ccc(OCCN4CCOCC4)cc2)nc1-3` [Example 227, 2-[3-(1-Amino-cyclopropyl)-1-methyl-azetidin-3-yl]-8-[4-(2-morpholin-4-yl-ethoxy)-phenyl]-4,5-dihydro-1H-1,7,9-triaza-cyclopenta[a]naphthalene-3-carboxylic acid lactam] as the molecule, how does the pIC50 read?
Its pIC50 is 8.15.

`O=C1NC2(CC2)C2(CC2)c2[nH]c3c(c21)CCc1cnc(-c2ccc(OCCN4CCOCC4)cc2)cc1-3` [Example 230, 2-(1′-Amino-bicyclopropyl-1-yl)-8-[4-(2-morpholin-4-yl-ethoxy)-phenyl]-4,5-dihydro-1H-pyrrolo[2,3-f]isoquinoline-3-carboxylic acid lactam] was tested. Which pIC50 did it give?
Its pIC50 is 7.44.

How did the pIC50 turn out when `O=C1NC2(CCC2)Cc2[nH]c3c(c21)CCc1cnc(-c2ccc(OCCN4CCOCC4)cc2)cc1-3` [Example 231, 2-(1-Amino-cyclobutylmethyl)-8-[4-(2-morpholin-4-yl-ethoxy)-phenyl]-4,5-dihydro-1H-pyrrolo[2,3-f]isoquinoline-3-carboxylic acid lactam] was run?
The pIC50 was 7.14.

How did the pIC50 turn out when `CC(C)Oc1ccc(-c2cc3c(cn2)CCc2c-3[nH]c3c2C(=O)NC2(CC2)C3)cn1` [Example 235, 2-(1-Amino-cyclopropylmethyl)-8-(6-isopropoxy-pyridin-3-yl)-4,5-dihydro-1H-pyrrolo[2,3-f]isoquinoline-3-carboxylic acid lactam] was run?
The pIC50 was 7.19.

How did the pIC50 turn out when `O=C1NC2(CC2)Cc2[nH]c3c(c21)CCc1cnc(-c2ccc(N4CCOCC4)nc2)cc1-3` [Example 236, 2-(1-Amino-cyclopropylmethyl)-8-(6-morpholin-4-yl-pyridin-3-yl)-4,5-dihydro-1H-pyrrolo[2,3-f]isoquinoline-3-carboxylic acid lactam] was run?
Its pIC50 is 7.66.

With `COc1ccc(-c2cc3c(cn2)CCc2c-3[nH]c3c2C(=O)NC2(CC2)C3)cc1F` [Example 238, 2-(1-Amino-cyclopropylmethyl)-8-(3-fluoro-4-methoxy-phenyl)-4,5-dihydro-1H-pyrrolo[2,3-f]isoquinoline-3-carboxylic acid lactam] as the molecule, how does the pIC50 read?
The pIC50 was 7.17.

`O=C1NC2(CC2)Cc2[nH]c3c(c21)CCc1cnc(-c2ccc(CO)nc2)cc1-3` [Example 240, 2-(1-Amino-cyclopropylmethyl)-8-(6-hydroxymethyl-pyridin-3-yl)-4,5-dihydro-1H-pyrrolo[2,3-f]isoquinoline-3-carboxylic acid lactam] was tested. Which pIC50 did it give?
Its pIC50 is 7.96.

How did the pIC50 turn out when `CC(=O)OCc1ccc(-c2cc3c(cn2)CCc2c-3[nH]c3c2C(=O)NC2(CC2)C3)cn1` [Example 244, 8-(6-Acetoxymethyl-pyridin-3-yl)-2-(1-amino-cyclopropylmethyl)-4,5-dihydro-1H-pyrrolo[2,3-f]isoquinoline-3-carboxylic acid lactam] was run?
Its pIC50 is 7.37.

With `O=C1NC2(CC2)Cc2[nH]c3c(c21)CCc1cnc(-c2ccc(CCCN4CCOCC4)cc2)cc1-3` [Example 246, 2-(1-Amino-cyclopropylmethyl)-8-[4-(3-morpholin-4-yl-propyl)-phenyl]-4,5-dihydro-1H-pyrrolo[2,3-f]isoquinoline-3-carboxylic acid lactam] as the molecule, how does the pIC50 read?
The pIC50 was 7.00.

`O=C1NC2(CC2)Cc2[nH]c3c(c21)CCc1cnc(-c2ccc(CCCN4CC(O)C4)cc2)cc1-3` [Example 248, 2-(1-Amino-cyclopropylmethyl)-8-{4-[3-(3-hydroxy-azetidin-1-yl)-propyl]-phenyl}-4,5-dihydro-1H-pyrrolo[2,3-f]isoquinoline-3-carboxylic acid lactam] was tested. Which pIC50 did it give?
Its pIC50 is 7.10.

With `CCN1CC2(C1)c1[nH]c3c(c1C(=O)NC21CC1)CCc1cnc(-c2ccc(OC(C)C)nc2)cc1-3` [Example 250] as the molecule, how does the pIC50 read?
The pIC50 was greater than 8.52.

With `CCN1CC2(C1)c1[nH]c3c(c1C(=O)NC21CC1)CCc1cnc(-c2ccc(OC)nc2)cc1-3` [Example 251, 2-[3-(1-Amino-cyclopropyl)-1-ethyl-azetidin-3-yl]-8-(6-methoxy-pyridin-3-yl)-4,5-dihydro-1H-pyrrolo[2,3-f]isoquinoline-3-carboxylic acid lactam] as the molecule, how does the pIC50 read?
Its pIC50 is 8.52.

`CCN1CC2(C1)c1[nH]c3c(c1C(=O)NC21CC1)CCc1cnc(-c2cnc(OC)c(F)c2)cc1-3` [Example 252, 2-[3-(1-Amino-cyclopropyl)-1-ethyl-azetidin-3-yl]-8-(5-fluoro-6-methoxy-pyridin-3-yl)-4,5-dihydro-1H-pyrrolo[2,3-f]isoquinoline-3-carboxylic acid lactam] was tested. Which pIC50 did it give?
Its pIC50 is 8.10.

How did the pIC50 turn out when `CCN1CC2(C1)c1[nH]c3c(c1C(=O)NC21CC1)CCc1cnc(-c2ccccc2F)cc1-3` [Example 253, 2-[3-(1-Amino-cyclopropyl)-1-ethyl-azetidin-3-yl]-8-(2-fluoro-phenyl)-4,5-dihydro-1H-pyrrolo[2,3-f]isoquinoline-3-carboxylic acid lactam] was run?
Its pIC50 is 7.82.

How did the pIC50 turn out when `CC(C)Oc1ccc(-c2cc3c(cn2)CCc2c-3[nH]c3c2C(=O)NC2(CC2)C32CN(C)C2)cn1` [Example 254, 2-[3-(1-Amino-cyclopropyl)-1-methyl-azetidin-3-yl]-8-(6-isopropoxy-pyridin-3-yl)-4,5-dihydro-1H-pyrrolo[2,3-f]isoquinoline-3-carboxylic acid lactam] was run?
Its pIC50 is greater than 8.52.

`COc1ccc(-c2cc3c(cn2)CCc2c-3[nH]c3c2C(=O)NC2(CC2)C32CN(C)C2)cn1` [Example 255, 2-[3-(1-Amino-cyclopropyl)-1-methyl-azetidin-3-yl]-8-(6-methoxy-pyridin-3-yl)-4,5-dihydro-1H-pyrrolo[2,3-f]isoquinoline-3-carboxylic acid lactam] was tested. Which pIC50 did it give?
The pIC50 was greater than 8.52.

With `CN1CC2(C1)c1[nH]c3c(c1C(=O)NC21CC1)CCc1cnc(-c2ccccc2F)cc1-3` [Example 256, 2-[3-(1-Amino-cyclopropyl)-1-methyl-azetidin-3-yl]-8-(2-fluoro-phenyl)-4,5-dihydro-1H-pyrrolo[2,3-f]isoquinoline-3-carboxylic acid lactam] as the molecule, how does the pIC50 read?
The pIC50 was greater than 8.52.

How did the pIC50 turn out when `CN1CC2(C1)c1[nH]c3c(c1C(=O)NC21CC1)CCc1cnc(-c2ccc(OCCN4CCOCC4)cc2)cc1-3` [Example 259, 2-[3-(1-Amino-cyclopropyl)-1-methyl-azetidin-3-yl]-8-[4-(2-morpholin-4-yl-ethoxy)-phenyl]-4,5-dihydro-1H-pyrrolo[2,3-f]isoquinoline-3-carboxylic acid lactam] was run?
The pIC50 was greater than 8.52.

`CN1CC2(C1)c1[nH]c3c(c1C(=O)NC21CC1)CCc1cnc(-c2ccc(CCCN4CCOCC4)cc2)cc1-3` [Example 260, 2-[3-(1-Amino-cyclopropyl)-1-methyl-azetidin-3-yl]-8-[4-(3-morpholin-4-yl-propyl)-phenyl]-4,5-dihydro-1H-pyrrolo[2,3-f]isoquinoline-3-carboxylic acid lactam] was tested. Which pIC50 did it give?
Its pIC50 is greater than 8.52.

`O=C(NCc1ccccc1)c1cccc(-c2cc3c(cn2)CCc2c-3[nH]c3c2C(=O)NCC32CN(CC3CC3)C2)c1` [Example 261, 2-(3-Aminomethyl-1-cyclopropylmethyl-azetidin-3-yl)-8-(3-benzylcarbamoyl-phenyl)-4,5-dihydro-1H-pyrrolo[2,3-f]isoquinoline-3-carboxylic acid lactam] was tested. Which pIC50 did it give?
Its pIC50 is 7.96.

`CN1CC2(CNC(=O)c3c2[nH]c2c3CCc3cnc(-c4cccc(C(=O)NCc5ccccc5)c4)cc3-2)C1` [Example 262, 2-(3-Aminomethyl-1-methyl-azetidin-3-yl)-8-(3-benzylcarbamoyl-phenyl)-4,5-dihydro-1H-pyrrolo[2,3-f]isoquinoline-3-carboxylic acid lactam] was tested. Which pIC50 did it give?
The pIC50 was greater than 8.52.

With `CCN1CC2(CNC(=O)c3c2[nH]c2c3CCc3cnc(-c4cccc(C(=O)NCc5ccccc5)c4)cc3-2)C1` [Example 263, 2-(3-Aminomethyl-1-ethyl-azetidin-3-yl)-8-(3-benzylcarbamoyl-phenyl)-4,5-dihydro-1H-pyrrolo[2,3-f]isoquinoline-3-carboxylic acid lactam] as the molecule, how does the pIC50 read?
Its pIC50 is greater than 8.52.
